Reference: ChEMBL document CHEMBL4616632, “Discovery of Cyclic Boronic Acid QPX7728, an Ultrabroad-Spectrum Inhibitor of Serine and Metallo-β-lactamases” (J Med Chem, 2020)

What was measured:
[1] = test system: Escherichia coli; experiment: Inhibition of Escherichia coli EC308 SHV-5 assessed as minimum concentration of compound needed to reduce the MIC of aztreonam to 4 ug/ml
[2] = molecular target: Beta-lactamase (Klebsiella pneumoniae) (UniProt Q93LQ9); experiment: Inhibition of Klebsiella pneumoniae KP1004 KPC-2 assessed as minimum concentration of compound needed to reduce the MIC of aztreonam to 4 ug/ml
[3] = test system: Pseudomonas aeruginosa; experiment: Inhibition of Pseudomonas aeruginosa PAM 2035 AmpC assessed as minimum concentration of compound needed to reduce the MIC of aztreonam to 4 ug/ml
[4] = test system: Escherichia coli; experiment: Inhibition of Escherichia coli EC302 TEM-10 assessed as minimum concentration of compound needed to reduce the MIC of aztreonam to 4 ug/ml
[5] = test system: Klebsiella pneumoniae; experiment: Inhibition of Klebsiella pneumoniae KP1009 CTX-M-15 assessed as minimum concentration of compound required to reduce the MIC of aztreonam to 4 ug/ml
[6] = test system: Enterobacter cloacae; experiment: Inhibition of Enterobacter cloacae ECL1002 AmpC assessed as minimum concentration of compound needed to reduce the MIC of aztreonam to 4 ug/ml
[7] = Oral bioavailability in rat at 50 to 75 mg/kg by HPLC/MS analysis; format: ADME, organism-based; details: in vivo
[8] = molecular target: Beta-lactamase (Klebsiella pneumoniae) (UniProt Q93LQ9); experiment: Inhibition of Klebsiella pneumoniae KP1004 KPC-2 assessed as minimum concentration of compound needed to reduce the MIC of biapenem to 1 ug/ml
[9] = test system: Klebsiella pneumoniae; experiment: Inhibition of Klebsiella pneumoniae KP1086 OXA-48 assessed as minimum concentration of compound needed to reduce the MIC of biapenem to 1 ug/ml
[10] = Inhibition of recombinant Escherichia coli OXA-48 using nitrocefin as substrate preincubated for 10 mins followed by substrate addition and measured every 10 secs for 10 mins by spectrophotometric analysis
[11] = Inhibition of recombinant Escherichia coli NDM-1 using imipenem as substrate preincubated for 10 mins followed by substrate addition and measured every 30 secs for 30 mins by spectrophotometric analysis
[12] = molecular target: Class A carbapenemase KPC-2 (Escherichia coli, UniProt A8DS27); experiment: Inhibition of recombinant Escherichia coli KPC-2 using nitrocefin as substrate preincubated for 10 mins followed by substrate addition and measured every 10 secs for 10 mins by spectrophotometric analysis
[13] = test system: Klebsiella pneumoniae; experiment: Inhibition of Klebsiella pneumoniae KP1081 NDM-1 assessed as minimum concentration of compound needed to reduce the MIC of biapenem to 1 ug/ml
[14] = test system: Pseudomonas aeruginosa; experiment: Inhibition of Pseudomonas aeruginosa PAM 1154 KPC-2 assessed as assessed as minimum potentiating concentration of compound needed to reduce the MIC of biapenem by 64 fold
[15] = test system: Pseudomonas aeruginosa; experiment: Inhibition of Pseudomonas aeruginosa PAM 1032 KPC-2 assessed as minimum potentiating concentration of compound needed to reduce the MIC of biapenem by 64 fold
[16] = Ratio of inhibition of Pseudomonas aeruginosa PAM 1032 KPC-2 assessed as minimum potentiating concentration of compound needed to reduce the MIC of biapenem by 64 fold to inhibition of Pseudomonas aeruginosa PAM 1154 KPC-2 assessed as assessed as minimum potentiating concentration of compound needed to reduce the MIC of biapenem by 64 fold
[17] = test system: Escherichia coli; experiment: Inhibition of Escherichia coli KP308 SHV-5 assessed as minimum concentration of compound required to reduce the MIC of aztreonam to 4 ug/ml
[18] = test system: Klebsiella pneumoniae; experiment: Inhibition of Klebsiella pneumoniae KP1081 NDM-1 assessed as minimum concentration of compound required to reduce the MIC of biapenem to 1 ug/ml
[19] = test system: Klebsiella pneumoniae; experiment: Inhibition of Klebsiella pneumoniae KP1054 VIM-1 assessed as minimum concentration of compound required to reduce the MIC of biapenem to 1 ug/ml
[20] = test system: Klebsiella pneumoniae; experiment: Inhibition of Klebsiella pneumoniae KP1160 IMP-26 assessed as minimum concentration of compound needed to reduce the MIC of meropenem to 1 ug/ml

Beta-lactamase (Klebsiella pneumoniae), sequence (Q93LQ9 as listed by the source): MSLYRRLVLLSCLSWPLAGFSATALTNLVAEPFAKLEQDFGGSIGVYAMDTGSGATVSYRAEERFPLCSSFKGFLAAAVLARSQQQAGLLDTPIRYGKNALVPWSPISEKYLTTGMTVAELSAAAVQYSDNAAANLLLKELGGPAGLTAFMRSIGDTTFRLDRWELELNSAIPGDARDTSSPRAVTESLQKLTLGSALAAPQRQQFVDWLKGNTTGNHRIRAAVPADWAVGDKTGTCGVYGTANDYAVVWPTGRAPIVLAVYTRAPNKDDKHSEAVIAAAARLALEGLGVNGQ
Class A carbapenemase KPC-2, sequence (A8DS27 whole entry): as the sequence (Q93LQ9 as listed by the source) above

Compound	MEC [1]	MEC [2]	MEC [3]	MEC [4]	MEC [5]	MEC [6]	further results
CSCC(=O)N[C@H]1Cc2ccc(Sc3nncn3C)c(C(=O)O)c2OB1O	< 0.3 µg/mL	5 µg/mL	> 20 µg/mL	2.5 µg/mL	2.5 µg/mL	5 µg/mL	–
CCOC(=O)OCOC(=O)c1c(OC)ccc2c1OB(O)[C@@H](Sc1nncs1)C2	–	–	–	–	–	–	bioavailability [7]: 64%
Nc1nnc(SCC(=O)N[C@H]2Cc3cccc(C(=O)O)c3OB2O)s1	–	–	–	–	–	–	Activity [8]: 0.08 µg/mL; Activity [9]: 2.5 µg/mL; Ki [10]: 0.5 nM; Ki [11]: 7400 nM; Ki [12]: 21 nM; Activity [13]: > 20 µg/mL
O=C(Cc1cccs1)N[C@H]1Cc2cccc(C(=O)O)c2OB1O	–	–	–	–	–	–	Activity [14]: 2.5 µg/mL; Activity [15]: 80 µg/mL; Ratio [16]: 32
COc1ccc2c(c1C(=O)OCOC(=O)OC(C)C)OB(O)[C@@H](Sc1nncs1)C2	–	–	–	–	–	–	bioavailability [7]: 94%
O=C(CSC1CNC1)N[C@H]1Cc2cccc(C(=O)O)c2OB1O	–	–	–	–	–	–	Activity [14]: 2.5 µg/mL; Activity [15]: 2.5 µg/mL; Ratio [16]: 1
CSCC(=O)N[C@H]1Cc2ccc(SCC(N)=O)c(C(=O)O)c2OB1O	0.16 µg/mL	2.5 µg/mL	> 20 µg/mL	1.25 µg/mL	0.6 µg/mL	2.5 µg/mL	–
COc1ccc2c(c1C(=O)OCOC(=O)C(C)(C)C)OB(O)[C@@H](Sc1nncs1)C2	–	–	–	–	–	–	bioavailability [7]: 100%
O=C(O)c1cccc2c1OB(O)[C@@H](Sc1nncs1)C2	–	10 µg/mL	–	20 µg/mL	> 20 µg/mL	20 µg/mL	MEC [17]: 2.5 µg/mL; MEC [18]: 0.6 µg/mL; MEC [19]: 2.5 µg/mL; Activity [8]: 0.16 µg/mL; Activity [9]: 5 µg/mL; Ki [10]: 1.4 nM; Ki [11]: 24 nM; MEC [20]: 40 µg/mL; Ki [12]: 150 nM; Activity [13]: 0.6 µg/mL

Now from value to compound, other results behind:

MEC [1]	MEC [2]	MEC [3]	MEC [4]	MEC [5]	MEC [6]	Compound	further results
< 0.3 µg/mL	1.25 µg/mL	> 20 µg/mL	2.5 µg/mL	1.25 µg/mL	5 µg/mL	CSCC(=O)N[C@H]1Cc2ccc(OCCO)c(C(=O)O)c2OB1O	–
< 0.3 µg/mL	0.6 µg/mL	2.5 µg/mL	5 µg/mL	0.6 µg/mL	0.6 µg/mL	CSCC(=O)N[C@H]1Cc2cccc(C(=O)O)c2OB1O	Activity [14]: 5 µg/mL; Activity [15]: 80 µg/mL; Ratio [16]: 8
< 0.3 µg/mL	< 0.3 µg/mL	20 µg/mL	< 0.3 µg/mL	< 0.3 µg/mL	0.6 µg/mL	COc1ccc2c(c1C(=O)O)OB(O)[C@@H](NC(=O)CSC)C2	Activity [14]: 5 µg/mL; Activity [15]: 10 µg/mL; Ratio [16]: 2
0.04 µg/mL	0.6 µg/mL	20 µg/mL	1.25 µg/mL	0.6 µg/mL	1.25 µg/mL	CSCC(=O)N[C@H]1Cc2ccc(SC)c(C(=O)O)c2OB1O	–
0.04 µg/mL	2.5 µg/mL	> 20 µg/mL	1.25 µg/mL	1.25 µg/mL	5 µg/mL	CSCC(=O)N[C@H]1Cc2ccc(SCCO)c(C(=O)O)c2OB1O	–
0.6 µg/mL	1.25 µg/mL	20 µg/mL	5 µg/mL	0.6 µg/mL	10 µg/mL	CSCC(=O)N[C@H]1Cc2ccc(SC3CNC3)c(C(=O)O)c2OB1O	–
